We go through one molecule from PMC6032384 (International Journal of Molecular Sciences, 2018).

Like-named read-outs stand apart in the source and are kept apart here.

A word on the IC50: it is the point on the concentration scale where inhibition reaches its midpoint.

For assay [1], the system named is MRC-5 (human lung fibroblast). Briefly: Alamar blue (AB) cytotoxicity assay, MRC-5 noncancerous cells. The format is cell-based. To be noted: MRC5 non-cancer cells, 72 h. For orientation: Resazurin is reduced to fluorescent resorufin, in cell work by metabolically active cells.
For assay [2], the system named is PBMC (human peripheral blood mononuclear cell). Briefly: Alamar blue (AB) cytotoxicity assay, PBMC noncancerous cells. The format is cell-based. The settings on record: PBMC non-cancer cells, 72 h.
In assay [3] the test system is BAD gene knockout immortalized mouse embryonic fibroblasts (BAD KO SV40 MEF). Briefly: Alamar blue (AB) cytotoxicity assay, BAD KO SV40 MEF. The format is cell-based. To be noted: 72 h.
For assay [4], the system named is wild-type immortalized mouse embryonic fibroblasts (WT SV40 MEF). Briefly: Alamar blue (AB) cytotoxicity assay, WT SV40 MEF. The format is cell-based. The settings on record: 72 h.
For assay [5], the system named is HL-60 cells. Briefly: Annexin V-FITC/PI apoptosis assay by flow cytometry. In kind it is cell-based, human. Here is the method: Additionally, annexin V, which is a Ca^2+-dependent protein with high affinity for phosphatidylserine, was conjugated to a fluorochrome to detect phosphatidylserine exposure using flow cytometry. Since phosphatidylserine exposure precedes the loss of membrane integrity, annexin V staining was used along with the dye PI to identify early and late apoptotic cells, as well as necrotic cells. Therefore, annexin V-FITC/PI double staining was applied to HL-60 cells that were treated with the [Ru(PPh3)2(Thy)(bipy)]PF6 complex after 24 and 48 h of incubation, and the numbers of viable, early apoptotic, late apoptotic, and necrotic cells were quantified by flow cytometry (Figure 5).
Figure 5 Evaluation of the apoptosis induced by the [Ru(PPh3)2(Thy)(bipy)]PF6 complex (CRT) in HL-60 cells determined by flow cytometry using annexin V-FITC/PI staining after 24 and 48 h of incubation. (A) Representative flow cytometry dot plots. (B) Apoptotic cell quantification (annexin V-FITC positive cells). […] Data are presented as the mean ± S.E.M. of at the least three independent experiments. * p < 0.05 as compared with the negative control by ANOVA, followed by the Student Newman-Keuls test. […] Its quadrant percentages are just as hard to read: 24 h about Q1 0.640%, Q2 5.23%, Q4 85.6%, Q3 8.47%; 48 h about Q1 0.430%, Q2 3.07%, Q4 91.0%, Q3 5.52%.
(§1) Light scattering features were determined by flow cytometry. The internucleosomal DNA fragmentation and cell cycle distribution were determined according to Nicoletti et al.. For apoptosis measurements, a FITC Annexin V Apoptosis Detection Kit I (BD Biosciences, San Jose, CA, USA) was used, and the analysis was performed, according to the manufacturer’s instructions. A protection assay using the pan-caspase inhibitor Z-VAD(OMe)-FMK (Cayman Chemical, Ann Arbor, MI, USA) was also evaluated. The mitochondrial transmembrane potential was determined by the retention of the dye rhodamine 123 [28]. The levels of ROS were measured, as previously described, using 2′,7′-dichlorofluorescin diacetate (DCF-DA, Sigma-Aldrich Co.). At least 1 × 10^4 events were recorded per sample using a BD LSRFortessa cytometer along with BD FACSDiva Software (BD Biosciences) and Flowjo Software 10 (Flowjo LCC, Ashland, OR, USA). The cellular debris was omitted from the analysis.
For orientation: A flow cytometer gives signals particle by particle.

The subject of assay [6] is HL-60 cells. Briefly: Protection assay with pan-caspase inhibitor Z-VAD(OMe)-FMK (annexin V-FITC/PI). In kind it is cell-based, human. The settings on record: 50 µM Z-VAD(OMe)-FMK 2 h, then 4 μM CRT 48 h.
Source text: Loss of the mitochondrial transmembrane potential is a critical step in intrinsic apoptosis, and activation of caspase-3 (an executioner caspase) favors DNA fragmentation.
Figure 7 Prevention of the apoptosis induced by the [Ru(PPh3)2(Thy)(bipy)]PF6 complex (CRT) in HL-60 cells by a pan-caspase inhibitor (Z-VAD(OMe)-FMK), as assessed by flow cytometry using annexin V-FITC/PI staining. (A) Representative flow cytometry dot plots. (B) Apoptotic cell quantification (annexin V-FITC positive cells). The cells were pretreated for 2 h with 50 µM Z-VAD(OMe)-FMK and then incubated with 4 μM CRT for 48 h. […]
as §1, with “For apoptosis measurements, a FITC Annexin V Apoptosis Detection Kit I (BD Biosciences, San Jose, CA, USA) was used, and the analysis was performed, according to the manufacturer’s instructions.” left out, “The cellular debris was omitted from the analysis.” left out

Assay [7] concerns HL-60 cells. Briefly: Mitochondrial transmembrane potential (rhodamine 123, flow cytometry). The settings on record: rhodamine 123, 24 h. In kind it is cell-based, human. Here is the method: Figure 6 Caspase-3 activity (A), assessed by a colorimetric assay after 48 h of incubation, and mitochondrial membrane potential (B), evaluated by flow cytometry using rhodamine 123 staining after 24 h of incubation, of HL-60 cells treatment with the [Ru(PPh3)2(Thy)(bipy)]PF6 complex (CRT). […] Data are presented as the mean ± S.E.M. of at the least three independent experiments. * p < 0.05 as compared with the negative control by ANOVA, followed by the Student Newman-Keuls test.
as §1, with “The cellular debris was omitted from the analysis.” left out

Another assay deals with tested cancer cell lines. Briefly: Alamar blue cytotoxicity, summary over the tested cancer cell lines. In kind it is cell-based. To be noted: AB assay, 72 h, most of the tested cancer cell lines.
The test system of assay [8] is HL-60 cells. The settings on record: TBE.
Assay [9] has as its system B16-F10, HepG2, K562, and HL-60. Also noted: method as in doi:10.1039/C7NJ04368F. To be noted: small panel of cancer cells (B16-F10, HepG2, K562, and HL-60), previous study; cited from earlier work.

`Cc1c[nH]c(=O)[n-]c1=O.F[P-](F)(F)(F)(F)F.[Ru+2].c1ccc(-c2ccccn2)nc1.c1ccc(P(c2ccccc2)c2ccccc2)cc1.c1ccc(P(c2ccccc2)c2ccccc2)cc1` [CRT, [Ru(PPh3)2(Thy)(bipy)]PF6]: the IC50 is 11500 nM in assay [1]; 1700 nM in assay [2]; 2400 nM in assay [3]; 2200 nM in assay [4]; less than 3000 nM in the assay on tested cancer cell lines; less than 2000 nM in assay [9]. Besides, the “Effect of pretreatment with antioxidant N-acetyl-L-cysteine (NAC) on the increase in apoptotic cells” value in the assay with HL-60 cells [5] (NAC pretreatment, data not shown) is given as “did not prevent”. For the same molecule, the “Percentage of apoptotic cells (early apoptotic cells + late apoptotic cells)” value in the assay on HL-60 cells [5] (annexin V-FITC/PI, 24 and 48 h) is given as “significant increase”. The “Percentage of necrotic cells” value in the assay on HL-60 cells [5] (annexin V-FITC/PI, 24 and 48 h) is “No significant increase”. In the assay with HL-60 cells [6], the “Effect of pan-caspase inhibitor Z-VAD(OMe)-FMK on the complex-induced increase in apoptotic cells” value is “partially prevented”. The Mitochondrial transmembrane potential result in the assay with HL-60 cells [7] is “caused the loss of the mitochondrial transmembrane potential”. Also, the “Reduction of the number of viable cells” value came to 32.5% with HL-60 cells [8] (1 μM, 24 h); 62.6% with HL-60 cells [8] (1 μM, 48 h); 49.1% in the assay with HL-60 cells [8] (2 μM, 24 h); 66.6% in the assay with HL-60 cells [8] (2 μM, 48 h); 59.1% in the assay with HL-60 cells [8] (4 μM, 24 h); 73.4% in the assay with HL-60 cells [8] (4 μM, 48 h). Moreover, the “Number of nonviable cells” value in the assay with HL-60 cells [8] (1, 2 and 4 μM, 24 and 48 h) is “No significant increase”.
